# Results reported in patent publication US20210309631A1, “SALT OF CYCLOHEXANE DERIVATIVE” (priority 2018, published 2021).
# Read-outs that look alike come from different tables or passages of the source.
# Key:
# [1] = Hygroscopicity (DVS) experiment, 25° C./80% relative humidity; type: physicochemical; details: DVS, 25° C./80% relative humidity; listed as Example 1 free base
# Procedure: Dynamic vapor sorption curves were collected on a DVS Intrinsic by SMS (Surface Measurement Systems).
# 20 mg sample of the crystal forms of the Examples and Comparative Examples are placed in the environment of 25° C./80% relative humidity for a dynamic vapor sorption (DVS) test, and the test results […] are shown in Table 5.
# [2] = In vivo individual difference analysis: individual plasma concentration versus time in rats (Example 8); parameters: species or system SD rats; details: intragastric 1 mg/kg; for Plasma Concentrations of Compound of Formula I: listed as Compound of Formula I; for concentration at 0 h: 0 h after administration
# Procedure: Compound of Formula I and salts thereof (sulfate, hydrochloride salt, phosphate, maleate), supplied by Shanghai Jingxin Biopharmaceutical Co., Ltd. • Strain: SD rats; Gender: male; Body weight: about 250 grams; Source: shanghai Jiesijie Experimental Animal Co., Ltd Route: single intragastric administration; Capacity: measured in 10 mL/kg body weight Preparation: weighing appropriate amount of the free base or salt of the compound of Formula I, adding a small amount of 0.5% CMC-Na to grind, adding 0.5% CMC-Na to the volume. The concentration is measured as the base. 20 SD rats were divided into 5 groups with 4 rats in each group, fasted for 12 h and drank freely before administration. […] The blood was anticoagulated with 1% heparin, the plasma was separated by 8000 rpm centrifugation for 4 min and stored at -40° C. for testing. LC-MS/MS Method. Pharmacokinetic parameters after administration in rats were calculated using a non-compartmental model of DAS 2.0 software.
# solubility in water = type: physicochemical; details: listed as crystal Form A of the free base
# [3] = Plasma pharmacokinetics in SD rats after single intragastric administration (Example 7); type: in vivo; details: intragastric 1 mg/kg, Mean ± SD, non-compartmental model, listed as free base
# Procedure: The in vivo absorption process and characteristics of the free base and four salts thereof (sulfate, hydrochloride salt, phosphate, maleate) of compound (I) in rats were studied. The pharmacokinetics of a single intragastric administration of 1 mg/kg of a compound of Formula I and four salts thereof (calculated by free base concentration in salt form) were studied in SD rats.
# SD rats were given a single intragastric administration of 1 mg/kg free base of Example 1 and four salts thereof (including hydrochloride salt from Example 2, sulfate from Example 3, phosphate from Example 4 and maleate from Example 5). There were 4 male rats in each group. The concentration of the compound of Formula I in plasma was determined, and the pharmacokinetic parameters were calculated according to the concentration-time curve.
structure (smiles),measurement,setting,value
"CN(C)C(=O)N[C@H]1CC[C@H](CCN2CCN(c3cccc4ccsc34)CC2)CC1 [Example 1, N′-[trans-4-[2-[7-(benzo[b]thiophene)-7-piperazinyl]ethyl]cyclohexyl]-N,N-dimethylurea]",Hygroscopicity,[1],Almost no
same,Vapor sorption,[1],0.16%
same,Plasma Concentrations of Compound of Formula I,"[2]; 5 min after administration, Mean ± SD",3.40 ± 5.74 ng/mL
same,Plasma Concentrations of Compound of Formula I,"[2]; 5 min after administration, rat 1♂",0.419 ng/mL
same,Plasma Concentrations of Compound of Formula I,"[2]; 5 min after administration, rat 2♂",0.624 ng/mL
same,Plasma Concentrations of Compound of Formula I,"[2]; 5 min after administration, rat 3♂",12.0 ng/mL
same,Plasma Concentrations of Compound of Formula I,"[2]; 5 min after administration, rat 4♂",0.543 ng/mL
same,Plasma Concentrations of Compound of Formula I,"[2]; 0.167 h after administration, rat 1♂",6.35 ng/mL
same,Plasma Concentrations of Compound of Formula I,"[2]; 0.167 h after administration, rat 3♂",25.8 ng/mL
same,Plasma Concentrations of Compound of Formula I,"[2]; 0.333 h after administration, rat 1♂",26.8 ng/mL
same,Plasma Concentrations of Compound of Formula I,"[2]; 0.333 h after administration, rat 2♂",33.0 ng/mL
same,Plasma Concentrations of Compound of Formula I,"[2]; 0.333 h after administration, rat 3♂",51.8 ng/mL
same,Plasma Concentrations of Compound of Formula I,"[2]; 0.5 h after administration, rat 2♂",37.2 ng/mL
same,Plasma Concentrations of Compound of Formula I,"[2]; 0.5 h after administration, rat 3♂",51.6 ng/mL
same,Plasma Concentrations of Compound of Formula I,"[2]; 1 h after administration, rat 3♂",45.6 ng/mL
same,Plasma Concentrations of Compound of Formula I,"[2]; 2 h after administration, rat 3♂",23.9 ng/mL
same,Plasma Concentrations of Compound of Formula I,"[2]; 2 h after administration, rat 4♂",40.3 ng/mL
same,Plasma Concentrations of Compound of Formula I,"[2]; 4 h after administration, rat 2♂",6.30 ng/mL
same,Plasma Concentrations of Compound of Formula I,"[2]; 4 h after administration, rat 3♂",7.95 ng/mL
same,Plasma Concentrations of Compound of Formula I,"[2]; 4 h after administration, rat 4♂",16.0 ng/mL
same,Plasma Concentrations of Compound of Formula I,"[2]; 6 h after administration, rat 2♂",1.94 ng/mL
same,Plasma Concentrations of Compound of Formula I,"[2]; 6 h after administration, rat 4♂",8.91 ng/mL
same,Plasma Concentrations of Compound of Formula I,"[2]; 9 h after administration, rat 2♂",0.95 ng/mL
same,Plasma Concentrations of Compound of Formula I,"[2]; 9 h after administration, rat 4♂",3.30 ng/mL
same,Plasma Concentrations of Compound of Formula I,"[2]; 12 h after administration, rat 1♂",0.372 ng/mL
same,Plasma Concentrations of Compound of Formula I,"[2]; 12 h after administration, rat 2♂",0.578 ng/mL
same,Plasma Concentrations of Compound of Formula I,"[2]; 12 h after administration, rat 3♂",0.682 ng/mL
same,Plasma Concentrations of Compound of Formula I,"[2]; 12 h after administration, rat 4♂",1.66 ng/mL
same,Plasma Concentrations of Compound of Formula I,"[2]; 24 h after administration, Mean ± SD",0.497 ± 0.273 ng/mL
same,Plasma Concentrations of Compound of Formula I,"[2]; 24 h after administration, rat 1♂",0.487 ng/mL
same,Plasma Concentrations of Compound of Formula I,"[2]; 24 h after administration, rat 2♂",0.308 ng/mL
same,Plasma Concentrations of Compound of Formula I,"[2]; 24 h after administration, rat 3♂",0.886 ng/mL
same,Plasma Concentrations of Compound of Formula I,"[2]; 24 h after administration, rat 4♂",0.306 ng/mL
same,concentration at 0 h,"[2]; male, SD, rat, plasma, oral, 1 mg/kg, Mean ± SD, read-out: Plasma Concentrations of Compound of Formula I",0 ng/mL
same,concentration at 0 h,"[2]; male, SD, rat, plasma, oral, 1 mg/kg, rat 1♂, read-out: Plasma Concentrations of Compound of Formula I",0 ng/mL
same,concentration at 0 h,"[2]; male, SD, rat, plasma, oral, 1 mg/kg, rat 2♂, read-out: Plasma Concentrations of Compound of Formula I",0 ng/mL
same,concentration at 0 h,"[2]; male, SD, rat, plasma, oral, 1 mg/kg, rat 3♂, read-out: Plasma Concentrations of Compound of Formula I",0 ng/mL
same,concentration at 0 h,"[2]; male, SD, rat, plasma, oral, 1 mg/kg, rat 4♂, read-out: Plasma Concentrations of Compound of Formula I",0 ng/mL
same,concentration at 0.167 h,"[2]; male, SD, rat, plasma, oral, 1 mg/kg, 0.167 h after administration, Mean ± SD, read-out: Plasma Concentrations of Compound of Formula I",14.9 ± 8.3 ng/mL
same,concentration at 0.167 h,"[2]; male, SD, rat, plasma, oral, 1 mg/kg, 0.167 h after administration, rat 2♂, read-out: Plasma Concentrations of Compound of Formula I",11.3 ng/mL
same,concentration at 0.167 h,"[2]; male, SD, rat, plasma, oral, 1 mg/kg, 0.167 h after administration, rat 4♂, read-out: Plasma Concentrations of Compound of Formula I",16.3 ng/mL
same,concentration at 0.333 h,"[2]; male, SD, rat, plasma, oral, 1 mg/kg, 0.333 h after administration, Mean ± SD, read-out: Plasma Concentrations of Compound of Formula I",42.2 ± 14.5 ng/mL
same,concentration at 0.333 h,"[2]; male, SD, rat, plasma, oral, 1 mg/kg, 0.333 h after administration, rat 4♂, read-out: Plasma Concentrations of Compound of Formula I",57 ng/mL
same,concentration at 0.5 h,"[2]; male, SD, rat, plasma, oral, 1 mg/kg, 0.5 h after administration, Mean ± SD, read-out: Plasma Concentrations of Compound of Formula I",46.4 ± 13.7 ng/mL
same,concentration at 0.5 h,"[2]; male, SD, rat, plasma, oral, 1 mg/kg, 0.5 h after administration, rat 1♂, read-out: Plasma Concentrations of Compound of Formula I",33.6 ng/mL
same,concentration at 0.5 h,"[2]; male, SD, rat, plasma, oral, 1 mg/kg, 0.5 h after administration, rat 4♂, read-out: Plasma Concentrations of Compound of Formula I",63.3 ng/mL
same,concentration at 1 h,"[2]; male, SD, rat, plasma, oral, 1 mg/kg, 1 h after administration, Mean ± SD, read-out: Plasma Concentrations of Compound of Formula I",43.7 ± 14.8 ng/mL
same,concentration at 1 h,"[2]; male, SD, rat, plasma, oral, 1 mg/kg, 1 h after administration, rat 1♂, read-out: Plasma Concentrations of Compound of Formula I",29.4 ng/mL
same,concentration at 1 h,"[2]; male, SD, rat, plasma, oral, 1 mg/kg, 1 h after administration, rat 2♂, read-out: Plasma Concentrations of Compound of Formula I",36.3 ng/mL
same,concentration at 1 h,"[2]; male, SD, rat, plasma, oral, 1 mg/kg, 1 h after administration, rat 4♂, read-out: Plasma Concentrations of Compound of Formula I",63.6 ng/mL
same,concentration at 2 h,"[2]; male, SD, rat, plasma, oral, 1 mg/kg, 2 h after administration, Mean ± SD, read-out: Plasma Concentrations of Compound of Formula I",25.1 ± 10.6 ng/mL
same,concentration at 2 h,"[2]; male, SD, rat, plasma, oral, 1 mg/kg, 2 h after administration, rat 1♂, read-out: Plasma Concentrations of Compound of Formula I",16.8 ng/mL
same,concentration at 2 h,"[2]; male, SD, rat, plasma, oral, 1 mg/kg, 2 h after administration, rat 2♂, read-out: Plasma Concentrations of Compound of Formula I",19.2 ng/mL
same,concentration at 4 h,"[2]; male, SD, rat, plasma, oral, 1 mg/kg, 4 h after administration, Mean ± SD, read-out: Plasma Concentrations of Compound of Formula I",8.91 ± 4.85 ng/mL
same,concentration at 4 h,"[2]; male, SD, rat, plasma, oral, 1 mg/kg, 4 h after administration, rat 1♂, read-out: Plasma Concentrations of Compound of Formula I",5.38 ng/mL
same,concentration at 6 h,"[2]; male, SD, rat, plasma, oral, 1 mg/kg, 6 h after administration, Mean ± SD, read-out: Plasma Concentrations of Compound of Formula I",3.99 ± 3.32 ng/mL
same,concentration at 6 h,"[2]; male, SD, rat, plasma, oral, 1 mg/kg, 6 h after administration, rat 1♂, read-out: Plasma Concentrations of Compound of Formula I",2.03 ng/mL
same,concentration at 6 h,"[2]; male, SD, rat, plasma, oral, 1 mg/kg, 6 h after administration, rat 3♂, read-out: Plasma Concentrations of Compound of Formula I",3.06 ng/mL
same,concentration at 9 h,"[2]; male, SD, rat, plasma, oral, 1 mg/kg, 9 h after administration, Mean ± SD, read-out: Plasma Concentrations of Compound of Formula I",1.65 ± 1.13 ng/mL
same,concentration at 9 h,"[2]; male, SD, rat, plasma, oral, 1 mg/kg, 9 h after administration, rat 1♂, read-out: Plasma Concentrations of Compound of Formula I",0.876 ng/mL
same,concentration at 9 h,"[2]; male, SD, rat, plasma, oral, 1 mg/kg, 9 h after administration, rat 3♂, read-out: Plasma Concentrations of Compound of Formula I",1.47 ng/mL
same,concentration at 12 h,"[2]; male, SD, rat, plasma, oral, 1 mg/kg, 12 h after administration, Mean ± SD, read-out: Plasma Concentrations of Compound of Formula I",0.823 ± 0.573 ng/mL
same,solubility in water,solubility in water,about 0.031 mg/ml
same,MRT0-∞,[3],3.63 ± 0.306 h
same,Tmax,[3],0.583 ± 0.289 h
same,t1/2,[3],2.78 ± 0.463 h
